Test results reported in patent publication US10160748B2 (AbbVie Inc., priority 2015, dated 2018).

Target: TNFα trimer (Homo sapiens, UniProt P01375)
Assay: TNFα FP Competitive Binding Assay
Settings: FP binding assay; 20 nM TNFα trimer, 1 nM OregonGreen488 probe; read-out: TNF IC50
Procedure, shortened: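 Compounds in 12-point 1:3 series, final top 100 μM (2.0% DMSO) or 338 μM (3.4% DMSO), displace 1 nM fluorescent probe from 20 nM TNFα trimer. After 18-24 h incubation plus 1 h rt equilibration, background-subtracted polarization measured and curves fitted with variable slope.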

Chain of TNFα trimer (P01375 77-233 limits assumed): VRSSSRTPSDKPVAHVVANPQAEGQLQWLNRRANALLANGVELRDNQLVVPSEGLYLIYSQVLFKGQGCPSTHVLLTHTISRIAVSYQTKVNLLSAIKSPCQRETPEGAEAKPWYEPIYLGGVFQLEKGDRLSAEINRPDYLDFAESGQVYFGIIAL

`Cn1c(=O)c2ccc(-c3cnc(N4CCN5C(=O)OC[C@@H]5C4)nc3)cc2n1Cc1cc(CO)ccc1OC(F)F` [Example 16.3, (S)-7-(5-(1-(2-(difluoromethoxy)-5-(hydroxymethyl)benzyl)-2-methyl-3-oxo-2,3-dihydro-1H-indazol-6-yl)pyrimidin-2-yl)tetrahydro-1H-oxazolo[3,4-a]pyrazin-3(5H)-one] and `Cn1c(=O)c2ccc(-c3cnc(N4CCN5C(=O)OC[C@H]5C4)nc3)cc2n1Cc1cc(CO)ccc1OC(F)F` [Example 16.4] cannot be ordered by IC50: less than 1000 nM for the first, less than 1000 nM for the second.

First: Cn1c(=O)c2ccc(-c3cnc(NC4CCNC(=O)C4)nc3)cc2n1Cc1cc(CO)ccc1OC(F)F (centres unmarked) [Example 16.5]
Second: Cn1c(=O)c2ccc(-c3cnc(NC4CCNC4=O)nc3)cc2n1Cc1cc(CO)ccc1OC(F)F (centres unmarked) [Example 16.6]
The IC50 of the first is lower: less than 1000 nM for the first, 1000 to 10000 nM for the second.

Compared with `Cn1c(=O)c2ccc(-c3cnc(C(C)(C)O)nc3)cc2n1Cc1cc(CO)ccc1OC(F)F` [Example 16.7], `Cc1ccc(OC(F)F)c(Cn2c3cc(-c4cnc(C(C)(C)CO)nc4)ccc3c(=O)n2C)c1` [Example 22.9] is higher in IC50: less than 1000 nM for the first, 1000 to 10000 nM for the second.

`CC(=O)N1CCN(c2ncc(-c3ccc4c(=O)n(C)n(Cc5cc(CO)ccc5OC(F)F)c4c3)cn2)CC1` [Example 16.8] and `CC(=O)N1CCN(c2ncc(-c3ccc4c(=O)n(C)n(Cc5cc(C)ccc5OC(F)F)c4c3)cn2)CC1` [Example 22.6] cannot be ordered by IC50: less than 1000 nM for the first, less than 1000 nM for the second.

`CN1CCC(Nc2ncc(-c3ccc4c(=O)n(C)n(Cc5cc(CO)ccc5OC(F)F)c4c3)cn2)CC1=O` (centres unmarked) [Example 16.9] and `Cn1c(=O)c2ccc(-c3cnc(N4CCN5C(=O)NC[C@H]5C4)nc3)cc2n1Cc1cc(CO)ccc1OC(F)F` [Example 18, (S)-7-(5-(1-(2-(Difluoromethoxy)-5-(hydroxymethyl)benzyl)-2-methyl-3-oxo-2,3-dihydro-1H-indazol-6-yl)pyrimidin-2-yl)hexahydroimidazo[1,5-a]pyrazin-3(2H)-one] cannot be ordered by IC50: less than 1000 nM for the first, less than 1000 nM for the second.

`Cn1c(=O)c2ccc(-c3cnc(N4CCN5C(=O)NC[C@@H]5C4)nc3)cc2n1Cc1nc(CO)ccc1C(F)(F)F` [Example 16.10] and `Cc1ccc(C(F)(F)F)c(Cn2c3cc(-c4cnc(N5CCN6C(=O)NC[C@H]6C5)nc4)ccc3c(=O)n2C)n1` [Example 19.2] cannot be ordered by IC50: less than 1000 nM for the first, less than 1000 nM for the second.

First: Cn1c(=O)c2cnc(-c3cnc(N4CCOCC4)nc3)cc2n1Cc1ccccc1OC(F)F [Example 17, 1-(2-(Difluoromethoxy)benzyl)-2-methyl-6-(2-morpholinopyrimidin-5-yl)-1H-pyrazolo[4,3-c]pyridin-3(2H)-one]
Second: C[C@@H]1C[C@@H](O)CCN1c1ncc(-c2ccc3c(=O)n(C)n(Cc4ccccc4OC(F)F)c3c2)cn1 [Example 19, 1-(2-(Difluoromethoxy)benzyl)-6-(2-((2R,4S)-4-hydroxy-2-methylpiperidin-1-yl)pyrimidin-5-yl)-2-methyl-1H-indazol-3(2H)-one]
The IC50 of the first is higher: greater than 10000 nM for the first, less than 1000 nM for the second.

`Cc1ccc(OC(F)F)c(Cn2c3cc(-c4cnc(C(C)(C)O)nc4)c(F)cc3c(=O)n2C)c1` [Example 17.1] and `Cc1ccc(OC(F)F)c(Cn2c3cc(-c4cnc(C(C)(C)CO)nc4)c(F)cc3c(=O)n2C)c1` [Example 17.4] cannot be ordered by IC50: less than 1000 nM for the first, less than 1000 nM for the second.

`Cc1ccc(OC(F)F)c(Cn2c3cc(-c4cnc(C(C)(C)O)nc4C)c(F)cc3c(=O)n2C)c1` [Example 17.2] and `Cc1ccc(OC(F)F)c(Cn2c3cc(-c4cnc(C(C)(C)O)nc4C)ccc3c(=O)n2C)c1` [Example 22.5] cannot be ordered by IC50: less than 1000 nM for the first, less than 1000 nM for the second.

`Cc1ccc(OC(F)F)c(Cn2c3cc(-c4cnc(N5CCN(C(=O)CO)C[C@H]5C)nc4)c(F)cc3c(=O)n2C)c1` [Example 17.3] and `Cc1ccc(OC(F)F)c(Cn2c3cc(-c4cnc(N5CCN(C(=O)CO)C[C@H]5C)nc4)ccc3c(=O)n2C)c1` [Example 22.4] cannot be ordered by IC50: less than 1000 nM for the first, less than 1000 nM for the second.

`CC(=O)N1CCN(c2ncc(-c3ccc4c(=O)n(C)n(Cc5cc(C)ccc5SC(F)F)c4n3)cn2)C[C@H]1C` [Example 18.1] and `CC(=O)N1CCN(c2ncc(-c3ccc4c(=O)n(C)n(Cc5cc(C)ccc5OC(F)F)c4n3)cn2)C[C@H]1C` [Example 18.2] cannot be ordered by IC50: less than 1000 nM for the first, less than 1000 nM for the second.

`CC(=O)N1CCN(c2ncc(-c3ccc4c(=O)n(C)n(Cc5cc(C)ccc5Cl)c4n3)cn2)C[C@H]1C` [Example 18.3] and `C[C@@H]1CN(c2ncc(-c3ccc4c(=O)n(C)n(Cc5ccccc5Cl)c4n3)cn2)CCN1C(=O)CO` [Example 23.1] cannot be ordered by IC50: less than 1000 nM for the first, less than 1000 nM for the second.

`CC(=O)N1CCN(c2ncc(-c3ccc4c(=O)n(C)n(Cc5nc(C)ccc5C(F)(F)F)c4c3)cn2)C[C@H]1C` [Example 19.1] and `Cc1ccc(C(F)(F)F)c(Cn2c3cc(-c4cnc(N5CCN(C(=O)CO)[C@H](C)C5)nc4)ccc3c(=O)n2C)n1` [Example 19.3] cannot be ordered by IC50: less than 1000 nM for the first, less than 1000 nM for the second.

`Cc1ccc(C(F)(F)F)c(Cn2c3cc(-c4cnc(N5CCN6C(=O)OC[C@H]6C5)nc4)ccc3c(=O)n2C)n1` [Example 19.4] and `Cc1ccc(C(F)(F)F)c(Cn2c3cc(-c4cnc(N5CCN(C(=O)CO)C[C@H]5C)nc4)ccc3c(=O)n2C)n1` [Example 19.5] cannot be ordered by IC50: less than 1000 nM for the first, less than 1000 nM for the second.

First: Cn1c(=O)c2ccc(-c3cnc(C4(O)CCN(C=O)CC4)nc3)cc2n1Cc1ccccc1OC(F)F [Example 20, 4-(5-(1-(2-(Difluoromethoxy)benzyl)-2-methyl-3-oxo-2,3-dihydro-1H-indazol-6-yl)pyrimidin-2-yl)-4-hydroxypiperidine-1-carbaldehyde]
Second: Cc1ccc(OC(F)F)c(Cn2c3cc(-c4cnc(N5CCC(O)CC5)nc4)ccc3c(=O)n2C)c1 [Example 22, 1-(2-(Difluoromethoxy)-5-methylbenzyl)-6-(2-(4-hydroxypiperidin-1-yl)pyrimidin-5-yl)-2-methyl-1H-indazol-3(2H)-one]
The IC50 of the first is higher: 1000 to 10000 nM for the first, less than 1000 nM for the second.

Compared with `Cc1ccc(OC(F)F)c(Cn2c3cc(-c4cnc(N5CCC(C(N)=O)C5)nc4)ccc3c(=O)n2C)c1` (centres unmarked) [Example 20.1], `Cc1ccc(OC(F)F)c(Cn2c3cc(-c4cnc(N5CCN(C(=O)CO)[C@H](C)C5)nc4)ccc3c(=O)n2C)c1` [Example 22.3] is lower in IC50: 1000 to 10000 nM for the first, less than 1000 nM for the second. The second is the more potent here.

`Cc1ccc(OC(F)F)c(Cn2c3cc(-c4cnc(N5CCN6C(=O)OC[C@@H]6C5)nc4)ccc3c(=O)n2C)c1` [Example 20.2] and `Cc1ccc(OC(F)F)c(Cn2c3cc(-c4cnc(N5CCN6C(=O)OC[C@H]6C5)nc4)ccc3c(=O)n2C)c1` [Example 22.12] cannot be ordered by IC50: less than 1000 nM for the first, less than 1000 nM for the second.

`CC(=O)N1CCN(c2ncc(-c3ccc4c(=O)n(C)n(Cc5cc(C)ccc5OC(F)F)c4c3)cn2)[C@H](C)C1` [Example 20.4] and `CC(=O)N1CCN(c2ncc(-c3ccc4c(=O)n(C)n(Cc5cc(C)ccc5OC(F)F)c4c3)cn2)[C@@H](C)C1` [Example 22.2] cannot be ordered by IC50: less than 1000 nM for the first, less than 1000 nM for the second.

`CC[C@@H]1CN(C(C)=O)CCN1c1ncc(-c2ccc3c(=O)n(C)n(Cc4cc(C)ccc4OC(F)F)c3c2)cn1` [Example 20.5] and `Cc1ccc(OC(F)F)c(Cn2c3cc(-c4cnc(N5CCN(C(=O)CO)C[C@@H]5C)nc4)ccc3c(=O)n2C)c1` [Example 22.15] cannot be ordered by IC50: less than 1000 nM for the first, less than 1000 nM for the second.

`C[C@H](N)C(=O)OCc1ccc(OC(F)F)c(Cn2c3cc(-c4cnc(N5CCN6C(=O)OC[C@@H]6C5)nc4)ccc3c(=O)n2C)c1` [Example 21, (S)-4-(Difluoromethoxy)-3-((2-methyl-3-oxo-6-(2-((S)-3-oxotetrahydro-1H-oxazolo[3,4-a]pyrazin-7(3H)-yl)pyrimidin-5-yl)-2,3-dihydro-1H-indazol-1-yl)methyl)benzyl 2-aminopropanoate] and `CC(=O)N1CCN(c2ncc(-c3ccc4c(=O)n(C)n(Cc5cc(C)ccc5OC(F)F)c4c3)cn2)C[C@H]1CO` [Example 22.10] cannot be ordered by IC50: less than 1000 nM for the first, less than 1000 nM for the second.

`COCC(=O)N1CCN(c2ncc(-c3ccc4c(=O)n(C)n(Cc5cc(C)ccc5OC(F)F)c4c3)cn2)C[C@H]1C` [Example 21.1] and `COC(=O)N1CCN(c2ncc(-c3ccc4c(=O)n(C)n(Cc5cc(C)ccc5OC(F)F)c4c3)cn2)C[C@H]1C` [Example 23, (R)-Methyl 4-(5-(1-(2-(difluoromethoxy)-5-methylbenzyl)-2-methyl-3-oxo-2,3-dihydro-1H-indazol-6-yl)pyrimidin-2-yl)-2-methylpiperazine-1-carboxylate] cannot be ordered by IC50: less than 1000 nM for the first, less than 1000 nM for the second.

`Cc1ccc(OC(F)F)c(Cn2c3cc(-c4cnc(N5CCN(C(=O)C6COC6)[C@H](C)C5)nc4)ccc3c(=O)n2C)c1` [Example 21.2] and `Cc1ccc(OC(F)F)c(Cn2c3cc(-c4cnc(N5CCN(C(=O)C6CCO6)[C@H](C)C5)nc4)ccc3c(=O)n2C)c1` (some centres unmarked) [Example 21.3] cannot be ordered by IC50: less than 1000 nM for the first, less than 1000 nM for the second.

`Cc1ccc(OC(F)F)c(Cn2c3cc(-c4cnc(N5CCN(C(=O)CC#N)[C@H](C)C5)nc4)ccc3c(=O)n2C)c1` [Example 21.4] and `CC(=O)N1CCN(c2ncc(-c3ccc4c(=O)n(C)n(Cc5cc(C)ccc5OC(F)F)c4c3)cn2)C[C@@H]1CO` [Example 22.11] cannot be ordered by IC50: less than 1000 nM for the first, less than 1000 nM for the second.

Compared with `Cc1ccc(OC(F)F)c(Cn2c3cc(-c4cnc(N5CCN(C(=O)CO)CC5)nc4)ccc3c(=O)n2C)c1` [Example 22.1], `Cc1ccc(OC(F)F)c(Cn2c3cc(-c4cnc(N5CCC[C@H]5CO)nc4)ccc3c(=O)n2C)c1` [Example 22.7] is higher in IC50: less than 1000 nM for the first, 1000 to 10000 nM for the second.

First: Cc1ccc(OC(F)F)c(Cn2c3cc(-c4cnc(N5CCC[C@@H]5CO)nc4)ccc3c(=O)n2C)c1 [Example 22.8]
Second: Cc1ccc(OC(F)F)c(Cn2c3cc(-c4ccnc(OC5CCOCC5)c4)ccc3c(=O)n2C)c1 [Example 22.13]
The IC50 of the first is higher: 1000 to 10000 nM for the first, less than 1000 nM for the second.

Compared with `CC(=O)N1CCN(c2ncc(-c3ccc4c(=O)n(C)n(Cc5cc(C)ccc5OC(F)F)c4c3)c(C)n2)[C@H](C)C1` [Example 22.14], `C[C@@H]1CN(c2ncc(-c3cc4c(cc3C#N)c(=O)n(C)n4Cc3ccccc3OC(F)F)cn2)CCN1C(=O)CO` [Example 23.2] is higher in IC50: less than 1000 nM for the first, 1000 to 10000 nM for the second. The first is the more potent here.

Work on `C[C@@H]1CN(c2ncc(-c3ccc4c(=O)n(C)n(Cc5ccccc5OC(F)F)c4c3C#N)cn2)CCN1C(=O)CO` [Example 23.3] yielded an IC50 of less than 1000 nM.
